Key:
HBV = HBV replication assay: HBV DNA from the supernatants of HepAD38 cells; type: cell-based; settings: Hepatitis B virus, 144 h, HBV DNA in supernatant at day 6, read-out: Cell Activity
Method: Determination of HBV DNA from the Supernatants of HepAD38 Cells
The anti-HBV activity was analysed in the stable transfected cell line HepAD38, which has been described to secrete high levels of HBV virion particles (Ladner et al., 1997). In brief, HepAD38 cells were cultured at 37° C. at 5% CO2 and 95% humidity in 200 μl maintenance medium, which was Dulbecco's modified Eagle's medium/Nutrient Mixture F-12 (Gibco, Karlsruhe), 10% fetal bovine serum (PAN Biotech Aidenbach) supplemented with 50 μg/ml penicillin/streptomycin (Gibco, Karlsruhe), 2 mM L-glutamine (PAN Biotech, Aidenbach), 400 μg/ml G418 (AppliChem, Darmstadt) and 0.3 μg/ml tetracycline. Cells were subcultured once a week in a 1:5 ratio, but were usually not passaged more than ten times. For the assay 60,000 cells were seeded in maintenance medium without any tetracycline into each well of a 96-well plate and treated with serial half-log dilutions of test compound. To minimize edge effects the outer 36 wells of the plate were not used but were filled with assay medium. On each assay plate six wells for the virus control (untreated HepAD38 cells) and six wells for the cell control (HepAD38 cells treated with 0.3 μg/ml tetracycline) were allocated, respectively. In addition, one plate set with reference inhibitors like BAY 41-4109, entecavir, and lamivudine instead of screening compounds were prepared in each experiment. In general, experiments were performed thrice in triplicates. At day 6 HBV DNA from 100 μl filtrated cell culture supernatant (AcroPrep Advance 96 Filter Plate, […] Supor membran, PALL GmbH, Dreieich) was automatically purified on the MagNa Pure LC instrument using the MagNA Pure 96 DNA and Viral NA Small Volume Kit (Roche Diagnostics, Mannheim) according to the instructions of the manufacturer. EC50 values were calculated from relative copy numbers of HBV DNA In brief, 5 μl of the 100 μl eluate containing HBV DNA were subjected to PCR LC480 Probes Master Kit (Roche) together with 1 μM antisense primer […], 0.5 μM sense primer […], 0.3 μM hybprobes […]-FL and LC640-[…]-PH (TIBMolBiol, Berlin) to a final volume of […]. The PCR was performed on the Light Cycler 480 real time system (Roche Diagnostics, Mannheim) using the following protocol: Pre-incubation for 1 min at 95° C., amplification: 40 cycles×(10 sec at 95° C., 50 sec at 60° C., 1 sec at 70° C.), cooling for 10 sec at 40° C. Viral load was quantitated against known standards using HBV plasmid DNA of pCH-9/3091 (Nassal et al., 1990, Cell 63: 1357-1363) and the LightCycler 480 SW 1.5 software (Roche Diagnostics, Mannheim) and EC50 values were calculated using non-linear regression with GraphPad Prism 6 (GraphPad Software Inc., La Jolla, USA).

[1] = target: T1, C-terminal truncated core protein (HBV core dimer, BODIPY-FL labelled) (UniProt P03146); assay: Biochemical capsid assembly assay (fluorescence quenching)
T1 construct: fused on or other part: One added cysteine at position 150, labelled with BODIPY-FL maleimide; The C-terminal arginine-rich domain is absent
T1 sequence (P03146 whole entry, the tested form may be a part): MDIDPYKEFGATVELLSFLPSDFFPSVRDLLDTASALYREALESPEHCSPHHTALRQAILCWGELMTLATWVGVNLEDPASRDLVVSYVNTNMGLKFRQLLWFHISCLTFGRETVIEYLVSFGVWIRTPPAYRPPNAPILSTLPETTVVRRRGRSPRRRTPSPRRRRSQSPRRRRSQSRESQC
How it was run: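 E. coli-expressed HBV core 1–149 plus Cys150 dimer, BODIPY-FL-labelled, at 1.0–2.0 μM in 50 mM HEPES pH 7.5, 0.5% DMSO. 8-point compound series; assembly started with NaCl, fluorescence quenching (ex 477/em 525 nm) read after 6 min. EC50 by non-linear regression versus 2.5 M and 0 M NaCl controls.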

[2] = Cell viability assay (AlamarBlue); settings: human, HepAD38 cells

| SMILES | EC50 (HBV) [µM] | IC50 [1] [µM] | CC50 at 6 days [2] [µM] |
| --- | --- | --- | --- |
| CCCCNC(=O)C(=O)N1CCN(C(=O)c2cc3cccc(Br)c3[nH]2)CC1 [Example 5, 2-[4-(7-bromo-1H-indole-2-carbonyl)piperazin-1-yl]-N-butyl-2-oxoacetamide] | < 1 | < 5 | > 100 |
| CC(C)(O)CNC(=O)C(=O)N1CCN(C(=O)c2cc3ccccc3[nH]2)CC1 [Example 32, 2-(4-(1H-indole-2-carbonyl)piperazin-1-yl)-N-(2-hydroxy-2-methylpropyl)-2-oxoacetamide] | < 1 | < 5 | > 100 |
| CC(O)CNC(=O)C(=O)N1CCN(C(=O)c2cc3ccccc3[nH]2)CC1 (stereo not drawn) [Example 28, 2-(4-(1H-indole-2-carbonyl)piperazin-1-yl)-N-(2-hydroxypropyl)-2-oxoacetamide] | < 1 | < 5 | > 100 |

Reference: patent US20220227737A1, “NOVEL OXALYL PIPERAZINES ACTIVE AGAINST THE HEPATITIS B VIRUS (HBV)” (AiCuris GmbH & Co. KG, priority 2019, published 2022)
